Positions of bridges follow the written chain, without caps; N, C: chain ends. Non-standard residues stand in square brackets, D forms with d. Residues, ends and D or L forms follow the SMILES beside them. Trp(1-CH2COOH) = N[C@@H](Cc1cn(CC(=O)O)c2ccccc12)C(=O)O; Hyp = O=C(O)[C@@H]1C[C@@H](O)CN1; Aad = N[C@@H](CCCC(=O)O)C(=O)O; NMeNle = CCCC[C@H](NC)C(=O)O; Pip = O=C(O)[C@@H]1CCCCN1; Dab = NCC[C@H](N)C(=O)O; Dap = NC[C@H](N)C(=O)O
molecular target: T1, PD-1-Ig binding to PD-L1-TVMV-His (PD-L1-His) (Homo sapiens, UniProt Q9NZQ7); assay: PD-1/PD-L1 Homogenous Time-Resolved Fluorescence (HTRF) binding assay; details: PD-1-Ig (20 nM) / PD-L1-His (10 nM); range classes
T1 construct: hPDL1(19-239)-TVMV-His; made in house; host or cells: HEK293T cells
Procedure, shortened: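 In dPBS with 0.1% BSA and 0.05% Tween-20, inhibitors were preincubated 15 min with 10 nM PD-L1-His before 20 nM PD-1-Ig was added for another 15 min. Binding read by time-resolved FRET between Eu-cryptate anti-Ig (1 nM) and APC anti-His (20 nM).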

T1 sequence (Q9NZQ7 with tags, fused parts or gaps): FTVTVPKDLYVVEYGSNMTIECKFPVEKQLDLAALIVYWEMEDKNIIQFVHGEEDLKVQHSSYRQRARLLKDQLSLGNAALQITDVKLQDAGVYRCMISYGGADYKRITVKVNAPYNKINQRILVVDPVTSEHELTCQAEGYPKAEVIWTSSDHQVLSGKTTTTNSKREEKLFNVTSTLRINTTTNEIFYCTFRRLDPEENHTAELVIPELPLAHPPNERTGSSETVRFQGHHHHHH

Row | Structure (SMILES) | IC50 [nM]
1 | CCCC[C@H]1C(=O)N(C)[C@@H](CCCC)C(=O)N[C@@H](CCC(=O)O)C(=O)N[C@H](C(=O)NCC(N)=O)CNCC(=O)N[C@@H](Cc2ccc(O)cc2)C(=O)N(C)[C@@H](C)C(=O)N[C@@H](CC(N)=O)C(=O)N2CCC[C@H]2C(=O)N[C@@H](CCC(N)=O)C(=O)N[C@@H](CC(=O)O)C(=O)N2C[C@H](O)C[C@H]2C(=O)N[C@@H](Cc2c[nH]c3ccccc23)C(=O)N[C@@H](CC(N)=O)C(=O)N[C@@H](Cc2cn(CC(=O)O)c3ccccc23)C(=O)N1C [Example 9019] | 1 to 9.9
2 | CCCC[C@H]1C(=O)N(C)[C@@H](CCCC)C(=O)N[C@@H](CC(C)C)C(=O)N[C@H](C(N)=O)CCCC(=O)N[C@@H](Cc2ccc(O)cc2)C(=O)N2CCCC[C@H]2C(=O)N[C@@H](CC(=O)O)C(=O)N2CCC[C@H]2C(=O)N[C@@H](CN)C(=O)N[C@@H](CC(C)C)C(=O)N2C[C@H](O)C[C@H]2C(=O)N[C@@H](Cc2c[nH]c3ccccc23)C(=O)N[C@@H](CCN)C(=O)N[C@@H](Cc2cn(CC(=O)O)c3ccccc23)C(=O)N1C [Example 10552] (Y[Pip]DP[Dap]L[Hyp]W[Dab][Trp(1-CH2COOH)][NMeNle][NMeNle]L[Aad]-NH2; lactam N-14) | 1 to 9.9
3 | CCCC[C@H]1C(=O)N(C)[C@@H](CCCC)C(=O)N[C@@H](CC(C)C)C(=O)N[C@H](C(=O)NCC(N)=O)CNCC(=O)N[C@@H](Cc2ccc(O)cc2)C(=O)N(C)[C@@H](C)C(=O)N[C@@H](CC(N)=O)C(=O)N2CCC[C@H]2C(=O)N[C@@H](Cc2cnc[nH]2)C(=O)N[C@@H](CC(C)C)C(=O)N2C[C@H](O)C[C@H]2C(=O)N[C@@H](Cc2c[nH]c3ccccc23)C(=O)N[C@@H](CO)C(=O)N[C@@H](Cc2cn(CC(=O)O)c3ccccc23)C(=O)N1C [Example 10007] | 1 to 9.9

From patent US9732119B2, “Immunomodulators” (BRISTOL-MYERS SQUIBB COMPANY, priority 2014, dated 2017)
